Reference: patent US8399468B2, “Octahydro-pyrrolo[3,4-B]pyrrole derivatives” (Abbott Laboratories, priority 2006, dated 2013)

Settings: compared with the 2-{4′-[(3aR,6aR)-5-methylhexahydropyrrolo[3,4-b]pyrrol-1(2H)-yl]-1,1′-biphenyl-4-yl}pyridazin-3(2H)-one compound

In the case of `CN1C[C@H]2CCN(c3ccc(-c4ccc(-n5ncccc5=O)cc4)cc3)[C@H]2C1.O.O=C(O)C(O)C(O)C(=O)O` [L-tartrate monohydrate Form A salt, 2-{4′-[(3aR,6aR)-5-Methylhexahydropyrrolo[3,4-b]pyrrol-1(2H)-yl]-1,1′-biphenyl-4-yl}pyridazin-3(2H)-one L-tartrate monohydrate Form A], the relative oxidative stability is reported as “better relative oxidative stability”.
